Test results taken from article PMC8829089, “The Pseudomonas aeruginosa homeostasis enzyme AlgL clears the periplasmic space of accumulated alginate during polymer biosynthesis” (The Journal of Biological Chemistry, 2022).

Target: T1, AlgL (NHis6-AlgL^28–362) (Pseudomonas aeruginosa, UniProt Q06749)
T1 construct: residues 28-362, signal peptide removed, N-terminal His6 tag (pET28b), expressed in E. coli; one molecule in the asymmetric unit
Assay: X-ray crystal structure, […] Å
Format: binding
Conditions: cocrystallized with 8 mM mannuronate trisaccharide (ManA3); only one sugar monomer seen in density, subsite +1 of active site

T1 sequence (Q06749 28-362): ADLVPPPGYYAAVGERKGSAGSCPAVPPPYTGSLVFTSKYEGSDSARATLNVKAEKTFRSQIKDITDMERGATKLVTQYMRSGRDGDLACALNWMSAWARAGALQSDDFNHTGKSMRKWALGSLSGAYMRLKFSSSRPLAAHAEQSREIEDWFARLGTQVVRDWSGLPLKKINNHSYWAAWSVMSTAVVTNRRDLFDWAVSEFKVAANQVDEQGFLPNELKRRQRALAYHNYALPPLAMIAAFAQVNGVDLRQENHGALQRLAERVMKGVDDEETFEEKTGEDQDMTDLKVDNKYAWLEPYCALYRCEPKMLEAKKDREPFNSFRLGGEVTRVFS

O=C(O)[C@H]1OC(O)[C@@H](O)[C@@H](O)[C@@H]1O (stereo partly shown) [ManA, mannuronate]
X-ray crystal structure, 1.64 Å: we were only able to detect electron density for a sugar monomer
